The results in this text go back to patent US9938269B2, “Inhibitor compounds of phosphodiesterase type 10A” (ABBVIE INC., priority 2011, dated 2018).

Structures can show the parent of a compound that is named as a salt. Where only a bound is given, the exact number is not on record here.

T1 sequence (Q9Y233 whole entry): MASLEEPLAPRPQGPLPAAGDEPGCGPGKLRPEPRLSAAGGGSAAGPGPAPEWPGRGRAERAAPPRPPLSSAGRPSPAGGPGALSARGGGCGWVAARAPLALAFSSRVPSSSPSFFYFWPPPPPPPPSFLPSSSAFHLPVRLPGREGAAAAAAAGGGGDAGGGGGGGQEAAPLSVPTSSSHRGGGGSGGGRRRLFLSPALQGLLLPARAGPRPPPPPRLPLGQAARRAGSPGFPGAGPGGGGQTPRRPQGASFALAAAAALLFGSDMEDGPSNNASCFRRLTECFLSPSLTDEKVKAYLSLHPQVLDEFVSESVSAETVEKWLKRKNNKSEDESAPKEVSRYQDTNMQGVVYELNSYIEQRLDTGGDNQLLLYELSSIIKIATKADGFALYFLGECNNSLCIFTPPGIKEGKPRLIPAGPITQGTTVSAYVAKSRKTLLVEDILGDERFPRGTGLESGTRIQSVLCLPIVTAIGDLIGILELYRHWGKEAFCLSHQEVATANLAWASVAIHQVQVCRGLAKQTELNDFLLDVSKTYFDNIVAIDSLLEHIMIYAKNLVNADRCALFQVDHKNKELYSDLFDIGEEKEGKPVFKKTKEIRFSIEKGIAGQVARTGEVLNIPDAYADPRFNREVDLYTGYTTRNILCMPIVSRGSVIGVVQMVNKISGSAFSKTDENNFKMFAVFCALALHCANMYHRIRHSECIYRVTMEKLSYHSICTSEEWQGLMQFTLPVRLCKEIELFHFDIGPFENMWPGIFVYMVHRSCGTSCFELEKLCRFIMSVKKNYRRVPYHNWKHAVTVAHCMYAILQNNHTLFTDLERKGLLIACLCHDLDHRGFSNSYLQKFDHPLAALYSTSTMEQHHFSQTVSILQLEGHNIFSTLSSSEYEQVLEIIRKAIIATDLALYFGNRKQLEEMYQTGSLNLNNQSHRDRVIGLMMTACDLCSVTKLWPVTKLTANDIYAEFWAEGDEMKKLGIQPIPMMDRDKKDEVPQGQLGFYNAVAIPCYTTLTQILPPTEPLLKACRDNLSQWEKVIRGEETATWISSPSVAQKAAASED

This test concerns the target T1, PDE10A (human) (Homo sapiens, UniProt Q9Y233).
T1 construct: purchased BPS Bioscience
In words: Measurement of PDE activity (HTRF cAMP kit), human PDE10A. Format: biochemical. The following applies: PDE enzymatic reaction, substrate 20 nM for PDE10, 60 minutes at 29 C. In a few lines:
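HTRF detection of cAMP left after hydrolysis, expressed as percent of uninhibited control to derive IC50. Reaction: serially diluted inhibitor mixed with recombinant enzyme, started with 20 nM cAMP, 60 min at 29 °C in Tris-HCl pH 7.5 buffer containing MgCl2 and BSA.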
`CSCOc1ccc(-c2ccncc2)c2c1CN(CCc1ccc3ccccc3n1)C2=O` [Example 267, 4-Methylsulfanylmethoxy-7-pyridin-4-yl-2-(2-quinolin-2-yl-ethyl)-2,3-dihydro-isoindol-1-one]: the half-maximal inhibitory concentration (IC50) is below 100 nM.

Regarding `O=C1c2c(cccc2NCc2ccncc2)CN1CCc1ccc2ccccc2n1` [Example 125, 7-[(Pyridin-4-ylmethyl)-amino]-2-(2-quinolin-2-yl-ethyl)-2,3-dihydro-isoindol-1-one], the IC50 fell in the range of 200 to 500 nM.

With `Cc1ncc(-c2cccc3c2CN(CCc2ccc4ccccc4n2)C3=O)s1` [Example 342, 4-(2-Methyl-thiazol-5-yl)-2-(2-quinolin-2-yl-ethyl)-2,3-dihydro-isoindol-1-one], the IC50 was below 100 nM.

As for `Cc1ccc2nc(CCN3Cc4nccc(-c5ccncc5)c4C3=O)ccc2c1` [compound 406, 6-[2-(6-Methyl-2-quinolyl)ethyl]-4-(4-pyridyl)-7H-pyrrolo[3,4-b]pyridin-5-one], the IC50 is below 100 nM.

The molecule `CCCn1c(CCN2Cc3cccc(N4CCOCC4)c3C2=O)nc2ccccc21` [Example 305, 7-Morpholin-4-yl-2-[2-(1-propyl-1H-benzoimidazol-2-yl)-ethyl]-2,3-dihydro-isoindol-1-one trifluoroacetate] had a 50% inhibitory concentration (IC50) of 200 to 500 nM.

For the molecule `Cn1c(CCN2Cc3cccc(N4CCOCC4)c3C2=O)nc2c(F)cccc21` [Example 307, 2-[2-(4-Fluoro-1-methyl-1H-benzoimidazol-2-yl)-ethyl]-7-morpholin-4-yl-2,3-dihydro-isoindol-1-one trifluoroacetate], the IC50 fell in the range of 200 to 500 nM.

`CCc1csc(CCN2Cc3nccc(-c4ccncc4)c3C2=O)n1` [compound 407, 6-[2-(4-Ethylthiazol-2-yl)ethyl]-4-(4-pyridyl)-7H-pyrrolo[3,4-b]pyridin-5-one] returned an IC50 below 100 nM.

For the molecule `O=C1c2c(cccc2-c2ccc3c(c2)CCO3)CN1CCc1ccc2ccccc2n1` [Example 56, 7-(2,3-Dihydro-benzofuran-5-yl)-2-(2-quinolin-2-yl-ethyl)-2,3-dihydro-isoindol-1-one], the IC50 is 200 to 500 nM.

`COc1cc(-c2cccc3c2C(=O)N(CCc2ccc4ccccc4n2)C3)ccn1` [Example 182, 7-(2-Methoxy-pyridin-4-yl)-2-(2-quinolin-2-yl-ethyl)-2,3-dihydro-isoindol-1-one trifluoroacetate] returned an IC50 of 200 to 500 nM.

With `O=C1c2c(cccc2OCc2cccnc2)CN1CCc1ccc2ccccc2n1` [Example 127, 7-(Pyridin-3-ylmethoxy)-2-(2-quinolin-2-yl-ethyl)-2,3-dihydro-isoindol-1-one], the concentration for half-maximal inhibition (IC50) fell in the range of 100 to 200 nM.

`COc1ccc(-c2ccnc3c2CN(CCc2ccc4ccccc4n2)C3=O)cc1` [compound 458, 4-(4-Methoxy-phenyl)-6-(2-quinolin-2-yl-ethyl)-5,6-dihydro-pyrrolo[3,4-b]pyridin-7-one trifluoroacetate] had an IC50 below 100 nM.

`CC(C)Oc1ccc(-c2ccncc2)c2c1CN(CCc1ccc3ccccc3n1)C2=O` [Example 205, 4-Isopropoxy-7-pyridin-4-yl-2-(2-quinolin-2-yl-ethyl)-2,3-dihydro-isoindol-1-one] returned an IC50 below 100 nM.

Take `O=C1c2c(cccc2-c2ccc3cn[nH]c3c2)CN1CCc1cn2ccccc2n1` [Example 243, 2-(2-Imidazo[1,2-a]pyridin-2-yl-ethyl)-7-(1H-indazol-6-yl)-2,3-dihydro-isoindol-1-one]: the IC50 is below 100 nM.

Regarding `O=C1c2c(-c3ccncc3)ccc(F)c2CN1CCc1ccc2ccccc2n1` [Example 16, 4-Fluoro-7-pyridin-4-yl-2-(2-quinolin-2-yl-ethyl)-2,3-dihydro-isoindol-1-one], the half-inhibitory concentration (IC50) was below 100 nM.

As for `O=C1c2c(-c3cc[nH]n3)ccnc2CN1CCc1ccc2ccccc2n1` [Example 323, 4-(1H-Pyrazol-3-yl)-6-(2-quinolin-2-yl-ethyl)-6,7-dihydro-pyrrolo[3,4-b]pyridin-5-one], the IC50 was below 100 nM.

Molecule `Cn1c(CCN2Cc3cccc(-c4ccncc4)c3C2=O)nc2cc(F)ccc21` [Example 221, 2-[2-(5-Fluoro-1-methyl-1H-benzoimidazol-2-yl)-ethyl]-7-pyridin-4-yl-2,3-dihydro-isoindol-1-one trifluoroacetate] yielded an IC50 below 100 nM.

For `O=C1c2c(cccc2N2CCC(F)(F)CC2)CN1CCc1ccc2ccccc2n1` [Example 143, 7-(4,4-Difluoro-piperidin-1-yl)-2-(2-quinolin-2-yl-ethyl)-2,3-dihydro-isoindol-1-one], the IC50 was below 100 nM.

On to `Cn1cc(-c2cccc3c2C(=O)N(CCc2ccc4ccccc4n2)C3)cn1` [Example 70, 7-(1-Methyl-1H-pyrazol-4-yl)-2-(2-quinolin-2-yl-ethyl)-2,3-dihydro-isoindol-1-one], for which the concentration for half-maximal inhibition (IC50) was 100 to 200 nM.

The molecule `Cc1cnc(-c2cccc3c2CN(CCc2ccc4ccccc4n2)C3=O)cn1` [Example 350, 4-(5-Methyl-pyrazin-2-yl)-2-(2-quinolin-2-yl-ethyl)-2,3-dihydro-isoindol-1-one] came in with an IC50 below 100 nM.

As for `Cc1cnccc1-c1ccnc2c1C(=O)N(CCc1ccc3ccccc3n1)C2` [Example 322, 4-(3-Methyl-pyridin-4-yl)-6-(2-quinolin-2-yl-ethyl)-6,7-dihydro-pyrrolo[3,4-b]pyridin-5-one], the IC50 is below 100 nM.

Turning to `O=C1c2c(cccc2-c2cc(F)ccc2F)CN1CCc1ccc2ccccc2n1` [Example 51, 7-(2,5-Difluoro-phenyl)-2-(2-quinolin-2-yl-ethyl)-2,3-dihydro-isoindol-1-one], the IC50 was in the range of 200 to 500 nM.

As to `CCc1ccc(CCN2Cc3nccc(N4CCOCC4)c3C2=O)nc1` [compound 499, 6-[2-(5-Ethyl-2-pyridyl)ethyl]-4-morpholino-7H-pyrrolo[3,4-b]pyridin-5-one trifluoroacetate], the IC50 is below 100 nM.

`CN(C)CCn1c(CCN2Cc3cccc(-c4ccncc4)c3C2=O)nc2ccccc21` [Example 293, 2-{2-[1-(2-Dimethylamino-ethyl)-1H-benzoimidazol-2-yl]-ethyl}-7-pyridin-4-yl-2,3-dihydro-isoindol-1-one trifluoroacetate] displayed an IC50 below 100 nM.

`O=C1c2c(-c3ccncc3)ccnc2CN1CCc1cn2ccsc2n1` [compound 423, 6-(2-Imidazo[2,1-b]thiazol-6-ylethyl)-4-(4-pyridyl)-7H-pyrrolo[3,4-b]pyridin-5-one trifluoroacetate]: the IC50 was below 100 nM.

`O=C1c2cccc(OCc3ccncc3)c2C(=O)N1CCc1ccc2ccccc2n1` [Example 247, 4-(Pyridin-4-ylmethoxy)-2-(2-quinolin-2-yl-ethyl)-isoindole-1,3-dione]: the 50% inhibitory concentration (IC50) is below 100 nM.

`COCCCOc1ccc(-c2ccncc2)c2c1CN(CCc1ccc3ccccc3n1)C2=O` [Example 204, 4-(3-Methoxy-propoxy)-7-pyridin-4-yl-2-(2-quinolin-2-yl-ethyl)-2,3-dihydro-isoindol-1-one]: the 50% inhibitory concentration (IC50) is below 100 nM.

On to `O=C1c2c(-c3cccnc3)ccc(F)c2CN1CCc1ccc2ccccc2n1` [compound 438, 4-fluoro-7-(3-pyridyl)-2-[2-(2-quinolyl)ethyl]isoindolin-1-one], for which the IC50 was below 100 nM.

On to `O=C1c2c(ccnc2-c2ccncc2)CN1CCc1ccc2ccccc2n1` [Example 1, 4-Pyridin-4-yl-2-(2-quinolin-2-yl-ethyl)-1,2-dihydro-pyrrolo[3,4-c]pyridin-3-one; compound with trifluoro-acetic acid], for which the IC50 is below 100 nM.
